Results published in patent publication US9211310B2, “Use of a Chinese medicine composition in preparing medicaments for treating secondary prevention of myocardial infarction” (TASLY PHARMACEUTICAL GROUP CO., LTD, priority 2010, dated 2015).

System: patients after acute myocardial infarction
Assay: TCM symptom score, total and single (chest pain, chest tightness, short breath, fatigue, palpitation, spontaneous perspiration, pale complexion), same clinical trial
Type: in vivo, human
Design: total score of TCM symptom, Mean / total score of TCM symptom, Min / total score of TCM symptom, Max / total score of TCM symptom, Md / change of total score of TCM symptom, Mean / change of total score of TCM symptom, Max / change of total score of TCM symptom, Md: scale not given here
Description: 3508 patients who were in accordance with the diagnostic standards of AMI for 28 days to 2 years and differentiated as Qi deficiency and blood stagnation syndrome by TCM were studied. 0.5 g Chinese medicine composition prepared by the method of EXAMPLE 1 (Coded as QSYQ) was administrated half an hour after meal, 3 times per day.
They included the overall survival time, angina pectoris score, TCM symptom score and life quality score, where angina pectoris score, TCM symptom score and life quality score were evaluated at randomization, in 1st, 3rd, 6th, 9th, 12th month after treatment and 18th month after follow-up.
The analysis method referred to the angina pectoris score.

## CC(=O)Oc1ccccc1C(=O)O [Control group, aspirine]
FAS, Follow-up-baseline
  change of pale complexion −1, number of patients: 39
  change of pale complexion −1, percent of patients: (2.75%)
  change of palpitation 0, number of patients: 690
  change of palpitation 0, percent of patients: (48.46%)
  change of palpitation 1, number of patients: 528
  change of palpitation 1, percent of patients: (37.08%)
  change of palpitation 2, number of patients: 97
  change of palpitation 2, percent of patients: (6.81%)
  change of palpitation 3, number of patients: 15
  change of palpitation 3, percent of patients: (1.05%)
  change of palpitation −1, number of patients: 90
  change of palpitation −1, percent of patients: (6.32%)
  change of palpitation −2, number of patients: 3
  change of palpitation −2, percent of patients: (0.21%)
  change of palpitation −3, number of patients: 1
  change of palpitation −3, percent of patients: (0.07%)
  change of short breath 0, % of patients: (52.21%)
  change of short breath 0, number of patients: 744
  change of short breath 2, % of patients: (36.42%)
  change of short breath 2, number of patients: 519
  change of short breath 4, % of patients: (5.47%)
  change of short breath 4, number of patients: 78
  change of short breath 6, % of patients: (0.77%)
  change of short breath 6, number of patients: 11
  change of short breath −2, % of patients: (4.98%)
  change of short breath −2, number of patients: 71
  change of short breath −4, % of patients: (0.00%)
  change of short breath −4, number of patients: 0
  change of short breath −6, % of patients: (0.14%)
  change of short breath −6, number of patients: 2
  change of spontaneous perspiration 0, number of patients: 656
  change of spontaneous perspiration 0, percent of patients: (46.07%)
  change of spontaneous perspiration 1, number of patients: 466
  change of spontaneous perspiration 1, percent of patients: (32.72%)
  change of spontaneous perspiration 2, number of patients: 141
  change of spontaneous perspiration 2, percent of patients: (9.90%)
  change of spontaneous perspiration 3, number of patients: 32
  change of spontaneous perspiration 3, percent of patients: (2.25%)
  change of spontaneous perspiration −1, percent of patients: (8.36%)
  change of spontaneous perspiration −2, number of patients: 8
  change of spontaneous perspiration −2, percent of patients: (0.56%)
  change of spontaneous perspiration −3, number of patients: 2
  change of spontaneous perspiration −3, percent of patients: (0.14%)
  change of total score of TCM symptom, Max: 27.00
  change of total score of TCM symptom, Md: −5.00
  change of total score of TCM symptom, Mean: −6.18
  change of total score of TCM symptom, Min: −29.00
Follow-up-baseline, FAS
  change of chest pain score 0, number of patients: 769
  change of chest pain score 0, percent of patients: (54.08%)
  change of chest pain score 3, number of patients: 426
  change of chest pain score 3, percent of patients: (29.96%)
  change of chest pain score 6, number of patients: 158
  change of chest pain score 6, percent of patients: (11.11%)
  change of chest pain score 9, number of patients: 9
  change of chest pain score 9, percent of patients: (0.63%)
  change of chest pain score −2, number of patients: 1
  change of chest pain score −2, percent of patients: (0.07%)
  change of chest pain score −3, number of patients: 47
  change of chest pain score −3, percent of patients: (3.31%)
  change of chest pain score −6, number of patients: 11
  change of chest pain score −6, percent of patients: (0.77%)
  change of chest pain score −9, number of patients: 1
  change of chest pain score −9, percent of patients: (0.07%)
  change of chest tightness score 0, number of patients: 728
  change of chest tightness score 0, percent of patients: (51.09%)
  change of chest tightness score 1, number of patients: 1
  change of chest tightness score 1, percent of patients: (0.07%)
  change of chest tightness score 3, number of patients: 544
  change of chest tightness score 3, percent of patients: (38.18%)
  change of chest tightness score 6, number of patients: 87
  change of chest tightness score 6, percent of patients: (6.11%)
  change of chest tightness score 9, number of patients: 5
  change of chest tightness score 9, percent of patients: (0.35%)
  change of chest tightness score −3, number of patients: 55
  change of chest tightness score −3, percent of patients: (3.86%)
  change of chest tightness score −6, number of patients: 4
  change of chest tightness score −6, percent of patients: (0.28%)
  change of chest tightness score −9, number of patients: 1
  change of chest tightness score −9, percent of patients: (0.07%)
Follow-up-baseline, PP
  change of chest pain score 0, number of patients: 750
  change of chest pain score 0, percent of patients: (54.03%)
  change of chest pain score 3, number of patients: 417
  change of chest pain score 3, percent of patients: (30.04%)
  change of chest pain score 6, number of patients: 155
  change of chest pain score 6, percent of patients: (11.17%)
  change of chest pain score 9, number of patients: 8
  change of chest pain score 9, percent of patients: (0.58%)
  change of chest pain score −2, number of patients: 1
  change of chest pain score −2, percent of patients: (0.07%)
  change of chest pain score −3, number of patients: 47
  change of chest pain score −3, percent of patients: (3.39%)
  change of chest pain score −6, number of patients: 9
  change of chest pain score −6, percent of patients: (0.65%)
  change of chest pain score −9, number of patients: 1
  change of chest pain score −9, percent of patients: (0.07%)
  change of chest tightness score 0, number of patients: 712
  change of chest tightness score 0, percent of patients: (51.19%)
  change of chest tightness score 1, number of patients: 1
  change of chest tightness score 1, percent of patients: (0.07%)
  change of chest tightness score 3, number of patients: 528
  change of chest tightness score 3, percent of patients: (37.96%)
  change of chest tightness score 6, number of patients: 86
  change of chest tightness score 6, percent of patients: (6.18%)
  change of chest tightness score 9, number of patients: 5
  change of chest tightness score 9, percent of patients: (0.36%)
  change of chest tightness score −3, number of patients: 54
  change of chest tightness score −3, percent of patients: (3.88%)
  change of chest tightness score −6, number of patients: 4
  change of chest tightness score −6, percent of patients: (0.29%)
  change of chest tightness score −9, number of patients: 1
  change of chest tightness score −9, percent of patients: (0.07%)
Follow-up, FAS
  chest pain score 0, number of patients: 754
  chest pain score 0, percent of patients: (52.84%)
  chest pain score 2, number of patients: 1
  chest pain score 2, percent of patients: (0.07%)
  chest pain score 3, number of patients: 479
  chest pain score 3, percent of patients: (33.57%)
  chest pain score 6, number of patients: 192
  chest pain score 6, percent of patients: (13.45%)
  chest pain score 9, number of patients: 1
  chest pain score 9, percent of patients: (0.07%)
  chest tightness score 0, number of patients: 754
  chest tightness score 0, percent of patients: (52.84%)
  chest tightness score 2, number of patients: 1
